Source: patent US20240158446A1, “CYCLIC COMPOUND HAVING SELECTIVE INHIBITORY ACTION ON KRAS OVER HRAS AND NRAS” (CHUGAI SEIYAKU KABUSHIKI KAISHA, priority 2021, published 2024)
pIC50, pKd: −log10 of the molar value. Read-outs that look alike come from different tables or passages of the source. Where a SMILES comes first, the peptide text is derived from it. Bridges are numbered along the chain shown (N, C = ends). [ ]: non-standard residue; d: D form. The star is where a group is joined. hPhe(3,5-F2-4-CF3) = N[C@@H](CCc1cc(F)c(C(F)(F)F)c(F)c1)C(=O)O; NPrPhe(4-CF3) = CCCN[C@@H](Cc1ccc(C(F)(F)F)cc1)C(=O)O; NMeGly(cPent) = CN[C@H](C(=O)O)C1CCCC1; NMeD = CN[C@@H](CC(=O)O)C(=O)O; NMeL = CN[C@@H](CC(C)C)C(=O)O; αMeL = CC(C)C[C@](C)(N)C(=O)O; Morpholide = C1CN(*)CCO1; Sar = CNCC(=O)O

What was measured:
[1] = molecular target: GDP-bound KRAS wild-type protein (Homo sapiens, UniProt P01116); test: Binding to KRAS by surface plasmon resonance (SPR), Single Cycle Kinetics
[2] = molecular target: GDP-bound NRAS wild-type protein (Homo sapiens, UniProt P01111); test: Binding to NRAS by surface plasmon resonance (SPR), Single Cycle Kinetics; details: for NRAS/KRAS (ratio of KD value with respect to GDP-bound NRAS wild-type protein to KD value with respect to KRAS): SPR KD ratio NRAS/KRAS, class symbols
[3] = molecular target: GDP-bound HRAS wild-type protein (Homo sapiens, UniProt P01112); test: Binding to HRAS by surface plasmon resonance (SPR), Single Cycle Kinetics; details: for HRAS/KRAS (ratio of KD value with respect to GDP-bound HRAS wild-type protein to KD value with respect to KRAS): SPR KD ratio HRAS/KRAS, class symbols
[4] = system: human lung cancer strain NCI-H441;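 further: cell proliferation inhibition after four days measured by CellTiter-Glo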
[5] = SPR, Single Cycle Kinetics, 1:1 binding model, read-out: KD value with respect to GDP-bound KRAS wild-type protein
[6] = SPR, Single Cycle Kinetics, GDP-bound KRAS wild-type protein, read-out: KRAS KD
[7] = SPR, GDP-bound NRAS wild-type protein vs GDP-bound KRAS wild-type protein
[8] = SPR, GDP-bound HRAS wild-type protein vs GDP-bound KRAS wild-type protein
[9] = read-out: NCI-H441 cell proliferation inhibitory activity, 50% proliferation inhibitory concentration (IC50 value), NCI-H441, four days, CellTiter-Glo
[10] = SPR Single Cycle Kinetics, GDP-bound KRAS wild-type protein, 1:1 binding model, read-out: KRAS KD

Chain of GDP-bound HRAS wild-type protein (P01112 whole entry): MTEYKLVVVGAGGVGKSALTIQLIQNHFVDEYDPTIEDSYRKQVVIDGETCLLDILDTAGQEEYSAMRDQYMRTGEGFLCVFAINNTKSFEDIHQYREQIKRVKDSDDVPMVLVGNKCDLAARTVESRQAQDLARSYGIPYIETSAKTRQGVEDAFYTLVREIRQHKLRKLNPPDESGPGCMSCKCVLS
Chain of GDP-bound KRAS wild-type protein (P01116 whole entry): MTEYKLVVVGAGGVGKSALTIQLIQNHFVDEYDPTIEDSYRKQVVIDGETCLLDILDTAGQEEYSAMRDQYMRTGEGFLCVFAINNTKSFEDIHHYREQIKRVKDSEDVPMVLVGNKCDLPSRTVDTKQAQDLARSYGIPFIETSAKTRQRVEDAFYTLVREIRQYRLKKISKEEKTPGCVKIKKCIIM
Chain of GDP-bound NRAS wild-type protein (P01111 whole entry): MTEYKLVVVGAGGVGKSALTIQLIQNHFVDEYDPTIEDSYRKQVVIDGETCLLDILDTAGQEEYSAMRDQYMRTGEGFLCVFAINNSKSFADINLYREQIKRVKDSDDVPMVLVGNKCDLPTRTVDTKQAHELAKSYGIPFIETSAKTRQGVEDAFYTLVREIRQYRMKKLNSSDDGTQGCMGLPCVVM

| Compound | pIC50 [4] | pKd [1, 6] | NRAS/KRAS (ratio of KD value for NRAS to KD value for KRAS) [2, 7] | HRAS/KRAS (ratio of KD value for HRAS to KD value for KRAS) [3, 8] | pKd [1, 10] | NRAS/KRAS (ratio of KD value with respect to GDP-bound NRAS wild-type protein to KD value with respect to KRAS) [2] | HRAS/KRAS (ratio of KD value with respect to GDP-bound HRAS wild-type protein to KD value with respect to KRAS) [3] | also measured |
| --- | --- | --- | --- | --- | --- | --- | --- | --- |
| CCO[C@@H]1C[C@H]2C(=O)NC3(CCC3)C(=O)N(C)[C@@H](C3CCCC3)C(=O)N(C)[C@H](C(=O)N(C)C)CC(=O)N(C)[C@@H](COC3CC3)C(=O)N[C@@H]([C@@H](C)CC)C(=O)N(C)CC(=O)N(C)[C@H]3C/C=C\CCN(C3=O)[C@@H](Cc3ccc(C(F)(F)F)cc3)C(=O)N(C)CC(=O)N[C@@H](CCc3cc(F)c(C(F)(F)F)c(F)c3)C(=O)N2C1 [PP1268, (2S,8S,12R,14S,20S,23S,27S,30S,36S,38Z)-20-cyclopentyl-27-(cyclopropoxymethyl)-8-[2-[3,5-difluoro-4-(trifluoromethyl)phenyl]ethyl]-12-ethoxy-N,N,4,19,22,26,32,35-octamethyl-30-[(1S)-1-methylpropyl]-3,6,9,15,18,21,25,28,31,34,42-undecaoxo-2-[[4-(trifluoromethyl)phenyl]methyl]spiro[1,4,7,10,16,19,22,26,29,32,35-undecazatricyclo[34.5.1.0^10,14]dotetracont-38-ene-17,1′-cyclobutane]-23-carboxamide] | 7.92 | – | – | – | – | – | – | pKd ([1]; SPR, Single Cycle Kinetics, 1:1 binding model, GDP-bound KRAS wild-type protein, read-out: KRAS KD): 10.35; NRAS/KRAS (ratio of KD value for NRAS to KD value for KRAS) ([2]; SPR, GDP-bound NRAS wild-type protein vs GDP-bound KRAS wild-type protein, KD ratio class): A (a compound having 10 or more and less than 20 is denoted as A); HRAS/KRAS (ratio of KD value for HRAS to KD value for KRAS) ([3]; SPR, GDP-bound HRAS wild-type protein vs GDP-bound KRAS wild-type protein, KD ratio class): A (a compound having 10 or more and less than 20 is denoted as A) |
| CCC[C@H]1C(=O)N[C@@H]([C@@H](C)CC)C(=O)N(C)CC(=O)N(C)[C@H]2C/C=C\CCN(C2=O)[C@@H](Cc2ccc(C)cc2)C(=O)N(C)CC(=O)N[C@@H](CCc2ccc(C(F)(F)F)c(OC)c2)C(=O)N2C[C@H](OCC)C[C@H]2C(=O)N(C)C2(CCC2)C(=O)N(C)[C@@H](C2CCCC2)C(=O)N(C)[C@H](C(=O)N2CCCC2)CC(=O)N1C [PP3106, (2S,8S,12R,14S,20S,23S,27S,30S,36S,38Z)-20-cyclopentyl-12-ethoxy-8-[2-[3-methoxy-4-(trifluoromethyl)phenyl]ethyl]-4,16,19,22,26,32,35-heptamethyl-30-[(1S)-1-methylpropyl]-27-propyl-2-(p-tolylmethyl)-23-(pyrrolidine-1-carbonyl)spiro[1,4,7,10,16,19,22,26,29,32,35-undecazatricyclo[34.5.1.0^10,14]dotetracont-38-ene-17,1′-cyclobutane]-3,6,9,15,18,21,25,28,31,34,42-undecone] | – | 10.32 | A (a compound having 10 or more and less than 20 is denoted as A) | A (a compound having 10 or more and less than 20 is denoted as A) | – | – | – | pKd [1, 5]: 10.32; ratio of the KD value with respect to GDP-bound NRAS wild-type protein to the KD value with respect to KRAS ([2]; SPR): A (a compound having 10 or more and less than 20 is denoted as A); ratio of the KD value with respect to GDP-bound HRAS wild-type protein to the KD value with respect to KRAS ([3]; SPR): A (a compound having 10 or more and less than 20 is denoted as A); pIC50 [4, 9]: 8.54 |
| CC[C@H](C)[C@@H]1NC(=O)[C@H](CC)N(C)C(=O)C[C@@H](C(=O)N(C)C)N(C)C(=O)[C@H](C2CCCC2)N(C)C(=O)C2(CCC2)NC(=O)[C@@H]2C[C@@H](F)CN2C(=O)[C@H](CCc2cc(F)c(C(F)(F)F)c(F)c2)NC(=O)CN(C)C(=O)[C@H](Cc2ccc(C(F)(F)F)cc2)N2CC/C=C\C[C@@H](C2=O)N(C)C(=O)CN(C)C1=O [PP1131, (2S,8S,12R,14S,20S,23S,27S,30S,36S,38Z)-20-cyclopentyl-8-[2-[3,5-difluoro-4-(trifluoromethyl)phenyl]ethyl]-27-ethyl-12-fluoro-N,N,4,19,22,26,32,35-octamethyl-30-[(1S)-1-methylpropyl]-3,6,9,15,18,21,25,28,31,34,42-undecaoxo-2-[[4-(trifluoromethyl)phenyl]methyl]spiro[1,4,7,10,16,19,22,26,29,32,35-undecazatricyclo[34.5.1.0^10,14]dotetracont-38-ene-17,1′-cyclobutane]-23-carboxamide] | 7.49 | 10.60 | A (a compound having 10 or more and less than 20 is denoted as A) | B (a compound having 3 or more and less than 10 is denoted as B) | – | – | – | – |
| CCC[C@H]1C(=O)N[C@@H]([C@@H](C)CC)C(=O)N2CCC[C@H]2C(=O)N(C)[C@H]2C/C=C\CCN(C2=O)[C@@H](Cc2ccc(C)cc2)C(=O)N(C)CC(=O)N[C@@H](CCc2ccc(Cl)c(Cl)c2)C(=O)N2C[C@H](OC(C)C)C[C@H]2C(=O)NC2(CC(C)(C)C2)C(=O)N(C)[C@@H](C(CC)CC)C(=O)N(C)[C@H](C(=O)N(C)C)CC(=O)N1C [PP2641] | 7.01 | – | – | – | 8.70 | AA (a compound having 20 or more is denoted as AA) | A (a compound having 10 or more and less than 20 is denoted as A) | – |
| CCCN1C(=O)CN(C)C(=O)CN(C)C(=O)[C@H]([C@@H](C)CC)NC(=O)[C@H](CC(C)C)N(C)C(=O)C[C@@H](C(=O)N2CCOCC2)N(C)C(=O)[C@H](C2CCCC2)N(C)C(=O)[C@](C)(CC(C)C)NC(=O)[C@@H]2CCCN2C(=O)[C@H](CCc2cc(F)c(C(F)(F)F)c(F)c2)NC(=O)CN(C)C(=O)[C@@H]1Cc1ccc(C(F)(F)F)cc1 [PP0759] ([NMeL]I[Sar][Sar][NPrPhe(4-CF3)][Sar][hPhe(3,5-F2-4-CF3)]P[αMeL][NMeGly(cPent)][NMeD]-Morpholide; lactam N-11) | 6.73 | – | – | – | 8.57 | – | – | NRAS/KRAS (ratio of KD value with respect to NRAS to KD value with respect to KRAS) [2, 7]: B (a compound having 3 or more and less than 10 is denoted as B); HRAS/KRAS (ratio of KD value with respect to HRAS to KD value with respect to KRAS) [3, 8]: B (a compound having 3 or more and less than 10 is denoted as B) |
| CC[C@H](C)[C@@H]1NC(=O)[C@H](COC)N(C)C(=O)C[C@@H](C(=O)N(C)C)N(C)C(=O)[C@H](C2CCCC2)N(C)C(=O)C2(CC(C)(C)C2)NC(=O)[C@@H]2C[C@@H](OC3CCCC3)CN2C(=O)[C@H](CCc2cc(F)c(C(F)(F)F)c(F)c2)NC(=O)CN(C)C(=O)[C@H](CC2CCC(F)(F)CC2)N2CC/C=C\C[C@@H](C2=O)N(C)C(=O)CN(C2CC2)C1=O [PP2634] | 7.34 | – | – | – | 9.17 | A (a compound having 10 or more and less than 20 is denoted as A) | A (a compound having 10 or more and less than 20 is denoted as A) | – |
| CCC(CC)[C@H]1C(=O)N(C)[C@H](C(=O)N(C)C)CC(=O)N(C)[C@@H](COC)C(=O)N[C@@H]([C@@H](C)CC)C(=O)N2CCC[C@H]2C(=O)N(C)[C@H]2C/C=C\CCN(C2=O)[C@@H](Cc2ccc(C(F)(F)F)cc2)C(=O)N(C)CC(=O)N[C@@H](CCc2ccc(Cl)c(Cl)c2)C(=O)N2C[C@H](OC3CCC3)C[C@H]2C(=O)NC2(CC(C)(C)C2)C(=O)N1C [PP2645] | 7.06 | – | – | – | 8.96 | AA (a compound having 20 or more is denoted as AA) | A (a compound having 10 or more and less than 20 is denoted as A) | – |
| CCC[C@H]1C(=O)N[C@@H]([C@@H](C)CC)C(=O)N2CCC[C@H]2C(=O)N(C)[C@H]2C/C=C\CCN(C2=O)[C@@H](Cc2ccc(C)cc2)C(=O)N(C)CC(=O)N[C@@H](CCc2cc(F)c(C(F)(F)F)c(F)c2)C(=O)N2C[C@H](OCC)C[C@H]2C(=O)N(C)C2(CCC2)C(=O)N(C)[C@@H](C2CCCC2)C(=O)N(C)[C@H](C(=O)N2CCCCC2)CC(=O)N1C [PP3115, (1S,4S,10S,13S,17S,20S,26S,28R,32S,38S,42Z)-20-cyclopentyl-32-[2-[3,5-difluoro-4-(trifluoromethyl)phenyl]ethyl]-28-ethoxy-2,14,18,21,24,36-hexamethyl-10-[(1S)-1-methylpropyl]-17-(piperidine-1-carbonyl)-13-propyl-38-(p-tolylmethyl)spiro[2,8,11,14,18,21,24,30,33,36,39-undecazatetracyclo[37.5.1.0^4,8.0^26,30]pentatetracont-42-ene-23,1′-cyclobutane]-3,9,12,15,19,22,25,31,34,37,45-undecone] | – | 8.59 | A (a compound having 10 or more and less than 20 is denoted as A) | B (a compound having 3 or more and less than 10 is denoted as B) | – | – | – | pKd [1, 5]: 8.59; ratio of the KD value with respect to GDP-bound NRAS wild-type protein to the KD value with respect to KRAS ([2]; SPR): A (a compound having 10 or more and less than 20 is denoted as A); ratio of the KD value with respect to GDP-bound HRAS wild-type protein to the KD value with respect to KRAS ([3]; SPR): B (a compound having 3 or more and less than 10 is denoted as B); pIC50 [4, 9]: 8.24 |
